In ChEMBL document CHEMBL1155545, “Design, synthesis and evaluation of 2,4-disubstituted pyrimidines as cholinesterase inhibitors” (Bioorg Med Chem Lett, 2010):

What was measured:
Acetylcholinesterase = Acetylcholinesterase (Electrophorus electricus, UniProt O42275)
Description: Inhibition of electric eel AChE

Cholinesterase = Cholinesterase (Equus caballus, UniProt P81908)
Chain of Cholinesterase (P81908 whole entry): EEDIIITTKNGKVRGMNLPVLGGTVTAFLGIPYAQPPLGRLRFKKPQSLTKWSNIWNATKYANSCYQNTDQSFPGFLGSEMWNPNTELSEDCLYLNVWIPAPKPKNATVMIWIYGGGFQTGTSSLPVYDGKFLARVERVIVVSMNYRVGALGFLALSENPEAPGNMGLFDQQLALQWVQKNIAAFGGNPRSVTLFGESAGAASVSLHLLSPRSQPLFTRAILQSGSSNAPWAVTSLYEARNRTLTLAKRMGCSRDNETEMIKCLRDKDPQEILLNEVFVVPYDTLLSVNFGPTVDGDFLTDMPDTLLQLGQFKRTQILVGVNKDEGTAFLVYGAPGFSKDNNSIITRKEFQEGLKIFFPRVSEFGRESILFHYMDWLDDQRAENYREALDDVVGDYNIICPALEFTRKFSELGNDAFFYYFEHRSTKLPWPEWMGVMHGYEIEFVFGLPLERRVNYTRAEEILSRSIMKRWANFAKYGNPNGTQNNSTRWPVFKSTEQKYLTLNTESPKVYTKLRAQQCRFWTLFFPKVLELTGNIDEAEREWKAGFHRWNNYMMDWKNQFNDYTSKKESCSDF
Description: Inhibition of equine serum BuChE

Chain of Acetylcholinesterase (O42275 whole entry): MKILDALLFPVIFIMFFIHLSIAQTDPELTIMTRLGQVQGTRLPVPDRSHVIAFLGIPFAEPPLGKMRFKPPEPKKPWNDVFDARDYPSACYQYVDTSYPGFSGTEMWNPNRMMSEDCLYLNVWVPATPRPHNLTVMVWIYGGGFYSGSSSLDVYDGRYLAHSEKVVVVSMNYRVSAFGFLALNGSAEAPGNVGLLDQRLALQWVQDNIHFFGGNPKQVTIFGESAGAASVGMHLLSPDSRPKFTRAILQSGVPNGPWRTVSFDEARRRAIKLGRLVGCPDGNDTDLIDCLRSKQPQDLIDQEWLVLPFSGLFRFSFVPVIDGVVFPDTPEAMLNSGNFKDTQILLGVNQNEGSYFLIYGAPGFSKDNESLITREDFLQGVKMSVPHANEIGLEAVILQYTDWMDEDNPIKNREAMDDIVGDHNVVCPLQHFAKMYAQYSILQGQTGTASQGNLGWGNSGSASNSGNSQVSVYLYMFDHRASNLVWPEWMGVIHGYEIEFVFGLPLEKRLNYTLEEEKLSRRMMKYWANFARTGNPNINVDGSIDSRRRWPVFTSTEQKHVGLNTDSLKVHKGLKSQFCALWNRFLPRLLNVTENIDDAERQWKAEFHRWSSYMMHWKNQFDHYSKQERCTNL

| Compound | IC50 (Acetylcholinesterase) | IC50 (Cholinesterase) |
| --- | --- | --- |
| CC1CCN(c2nccc(NCc3ccccc3)n2)CC1 | 0.39 µM | 2.9 µM |
| c1ccc(CCNc2ccnc(N3CCSCC3)n2)cc1 | 25 µM | > 100 µM |
| CN1CCN(c2nccc(NCCc3ccccc3)n2)CC1 | 14.4 µM | > 100 µM |
| CC1CCN(c2nccc(NCCc3ccccc3)n2)CC1 | 7.9 µM | 17.7 µM |
| c1ccc2c(CNc3ccnc(N4CCCC4)n3)cccc2c1 | 5.8 µM | 8.9 µM |
| c1ccc2c(CNc3ccnc(N4CCOCC4)n3)cccc2c1 | 15.7 µM | 28 µM |
| c1ccc2c(CNc3ccnc(N4CCSCC4)n3)cccc2c1 | 15.5 µM | – |
| CN1CCN(c2nccc(NCc3cccc4ccccc34)n2)CC1 | 17.6 µM | 2.6 µM |
| CN1CCN(c2nccc(NCc3ccccc3)n2)CC1 | 0.56 µM | > 100 µM |
| c1ccc(CCNc2ccnc(N3CCOCC3)n2)cc1 | 4.8 µM | > 100 µM |
| c1ccc(CNc2ccnc(N3CCCC3)n2)cc1 | 9.8 µM | 26.4 µM |
| c1ccc(CNc2ccnc(N3CCOCC3)n2)cc1 | 0.5 µM | – |
| c1ccc(CNc2ccnc(N3CCSCC3)n2)cc1 | 0.33 µM | 2.3 µM |
| c1ccc2c(NCCCCCCCNc3c4c(nc5ccccc35)CCCC4)c3c(nc2c1)CCCC3 | 0.0018 µM | 0.0105 µM |
